Among the data in the OPERA property sets (Mansouri et al. 2018) are logP values, retold here.

Where a SMILES comes first, the peptide text is derived from it.

For `CC(C)NC(=NC#N)NS(=O)(=O)c1cnccc1NC1CC1`, the logP stood at 0.01.
As for `CNc1ccc2cc3ccc4c(c3nc2c1CO)COCN4`, the figure is 1.65; as for `CCC(C)C(NC(=O)C(NC(=O)C(N)CC(C)C)C(C)CC)C(=O)O` (stereo not drawn) (H-Leu-Ile-Ile-OH; configuration not given here), -1.11.
`CN(C1=NC(=O)N(c2ccc(Cl)cc2)C1)C1CCCCC1`: the logP is 2.7.
`Cc1cc2c(nn1)-c1ccccc1C2=O`: the logP amounted to 1.58.
As for `c1ccc(N2CCN(CCCOn3nnc4ccccc43)CC2)cc1`, the figure is 3.49; as for `C[N+](C)([O-])CCCC(c1ccccc1)c1ccccc1`, 1.45.
To `CC(C(=O)OC1CCCCC1)S(=O)(=O)c1ccc([N+](=O)[O-])cc1` (stereo unspecified) belongs 2.82; to `COc1cc2c(Nc3cc(CC(=O)Nc4cccc(F)c4F)[nH]n3)ncnc2cc1OCCCN(CCO)CC(C)C`, 5.2; to `Cc1csc(Cl)c1NC1=NCCN1`, 1.18.
Consider `Cc1nc2c3c(c(C(=O)N4CCCC4)cn2c1C)CCC(c1ccccc1)O3` (stereo unspecified), for which the logP was determined as 3.6.
As for `CC(C)CC(NC(=O)C(NC(=O)C(CO)NC(=O)C(CC(C)C)NC(=O)CN)C(C)C)C(=O)O` (stereo unspecified) (H-GLSVL-OH; configuration not given here), the figure is -1.64; as for `CCCCC(O)C(CCCCOc1cccc(C)c1)n1cncn1` (stereo unspecified), 3.6.
To `CCC(C)C(NC(C)=O)C(=O)NC(Cc1ccccc1)C(=O)NC(CCCNC(=N)N)C(N)=O` (stereo not drawn) (Ac-Ile-Phe-Arg-NH2; configuration not given here) belongs -0.05; to `O=C(Cc1ccccc1)Nc1[nH]cnc2ncnc1-2`, 1.19.
Take `CCCCCC(=O)c1ccncc1`: the log partition coefficient (logP) was found to be 2.9.
To `CC(=NNC(=O)c1ccc([N+](=O)[O-])cc1)c1cnccn1` belongs 2.1; to `Oc1ccccc1CNc1ncnc2nc[nH]c12`, 2.05.
With `COc1ccc(CCNCC(O)COc2ccc(-c3nc(C)c(Br)[nH]3)cc2)cc1OC` (stereo unspecified), the logP was 3.9.
As for `Cc1cccc(Cc2c[nH]cn2)c1`, the figure is 2.39; as for `COP(=O)(OC)Oc1ccc(C#N)cc1`, 0.84.
To `CC(=O)c1c2ccccc2cc2ccccc12` belongs 3.6; to `c1ccc(Nc2ncnc3nc[nH]c23)cc1`, 2.12.
As for `COC(=O)C=CCn1cnc([N+](=O)[O-])n1`, the figure is 0.09; as for `COC(=O)C(C)=CC1C(C(=O)OCc2cccc(Cc3ccccc3)c2)C1(C)C` (stereo unspecified), 6.41.
For the compound `CN(C)c1cc[n+]([O-])cc1`, the logP was -0.9.
`O=C1CN=C(c2ccccc2)c2ccc(C(F)(F)F)cc2N1` displayed a lipophilicity (logP) of 3.18.
Compound `Cc1ccc(-n2c(Cc3c(C)[nH]c4ccccc34)n[nH]c2=S)cc1` gave a logP of 3.
For `ClCC1(C(Cl)Cl)C2CC(Cl)C1(C(Cl)Cl)CC2(Cl)Cl` (stereo unspecified), the lipophilicity (logP) was found to be 5.75.
To `Cc1c(C)c2cc3ccoc3c(C)c2oc1=O` belongs 3.25; to `Cc1cccc(OCC2CN=C(N)O2)c1C` (stereo unspecified), 2.25; to `CCCCCCC(=O)Oc1ccc2c3c1OC1C(OS(=O)(=O)O)C=CC4C(C2)N(C)CCC341` (stereo unspecified), 0.36.
The compound `CCCCN(C)CC(=O)Nc1c(C)cccc1C` returned a lipophilicity (logP) of 2.74.
To `N#CC(C#N)=NNc1cccc(Cl)c1Cl` belongs 3.85.
Compound `CC1=CCC(C)(C)C=CCC2(C)OC2CC1` (stereo unspecified) gave a log partition coefficient (logP) of 4.45.
`Brc1ccc2ccc3cccc4ccc1c2c34`: the log partition coefficient (logP) amounted to 5.81.
In turn, `CCSSc1ncc[nH]1` came in with a logP of 2.13.
As to `CCC(C)C(N)C(=O)NC(C(=O)NC(C(=O)NC(C(=O)NC(C(=O)O)C(C)CC)C(C)C)C(C)C)C(C)C` (stereo unspecified) (H-IVVVI-OH; configuration not given here), the lipophilicity (logP) was -0.89.
`Clc1cccc(N2CCN(CCCOn3nnc4ccccc43)CC2)c1`: the logP was found to be 4.2.
As for `CCOc1cc2ncnc(Nc3cccc(Br)c3)c2cc1OCC`, the figure is 4.4; as for `CC(=O)C(=Cc1cc(O)c(O)c([N+](=O)[O-])c1)C(C)=O`, 1.21.
`Nc1nnnn1-c1cccc(Cl)c1`: the logP stood at 1.44.
As for `CCCC(=NOCC)C1=C(O)CC2(CCC(CC(C)(C)C)CC2)OC1=O` (stereo unspecified), the figure is 5.3; as for `c1ccc(N2CCN(CCn3nnc4ccccc43)CC2)cc1`, 2.74; as for `CC(C)n1cccc(O)c1=O`, 0.79.
Regarding `Cc1cc(=O)[nH]nc1/C=C/c1ccc(-n2cnc3c2CCCC3)cc1`, the logP came out at 3.1.
`c1ccc(CN2CCN(CCn3nc4ccccc4n3)CC2)cc1` returned a logP of 3.3.
`CCOC(=O)C1=C(C)NC(C)=C(C(=O)OC)C1c1cc(OC)c(O)c(OC)c1` (stereo unspecified) showed a logP of 2.83.
As for `Cc1nc2c3c(c(C(=O)N(C)C)cn2c1C)CCC(c1cccs1)O3` (stereo unspecified), the figure is 2.8; as for `CC(C)C(C)NC(CO)C(O)c1ccccc1` (stereo unspecified), 1.61.
Compound `C1CCSC1` yielded a log partition coefficient (logP) of 1.61.
As for `O=c1c2c(nc3n1CCC3)CCC2`, the figure is 0.22; as for `CCCc1nc(NC(=O)c2ccccc2)nc(N2CCOCC2)n1`, 1.61.
To `CC=C(C)C(=O)OC1CC(C)CCC1C(C)C` (stereo unspecified) belongs 6.2; to `O=C(OC1Cc2c(O)cc(O)cc2OC1c1ccc(O)c(O)c1)c1ccccc1` (stereo unspecified), 3.44.
To `Clc1cc(Cl)c2c(c1)Oc1cc(Cl)c(Cl)c(Cl)c1O2` belongs 6.4.
The compound `CC(C)(C)c1ccc(OCC2CN=C(N)O2)cc1` (stereo unspecified) returned a log partition coefficient (logP) of 2.84.
In the case of `O=C1c2ccccc2-c2nncc(-c3ccccc3)c21`, the logP was 2.8.
The compound `CCNC(=S)SC` yielded a logP of 1.57.
On to `CCCCc1cnc(C2=NC(C)(C(C)C)C(=O)N2)c(C(=O)O)c1` (stereo unspecified), for which the logP is 1.99.
Turning to `O=C(NS(=O)(=O)c1cnccc1NC1CCCCCCC1)N1CCCCC1`, the logP was found to be 4.55.
Consider `COC(=O)c1c(Oc2nc(OC)cc(OC)n2)cccc1C(C)=NOCC(F)(F)F`, for which the logP is 3.39.
`Cc1nc2c3c(c(C(=O)O)cn2c1C)CCC(c1ccccc1)O3` (stereo unspecified) had a logP of 4.6.
As for `COc1cc(OC)nc(Oc2cccc(C(F)(F)F)c2C(=O)O)n1`, the figure is 2.7; as for `CCOC(=O)c1ccc(N=NN(C)C(=O)OCOC(C)=O)cc1`, 3.44; as for `CC(C)CC(NC(=O)C(N)Cc1c[nH]c2ccccc12)C(=O)O` (stereo unspecified), -0.73.
As for `CCCSCc1cc(=O)c(O)co1`, the figure is 1.32; as for `Cc1ccc(C(=O)OCCCn2ccc(=O)c(O)c2C)cc1`, 1.79.
As for `C=CC(=O)Oc1ccccc1`, the figure is 1.94; as for `CCCCCCCNC1=NS(=O)N=C1NCCSCc1ccc(CN(C)C)o1` (stereo unspecified), 3.91.
As to `COc1cccc(C=[N+]([O-])C(C)(C)C)c1`, the logP worked out at 1.4.
For the compound `CCN(CC)CCNC(=O)c1c(C)cccc1C`, the log partition coefficient (logP) amounted to 2.22.
As for `Nc1nnnn1-c1ccc(Cl)cc1Cl`, the figure is 1.62; as for `Nc1nnc(-c2cccc(Cl)c2Cl)c(N)n1`, 2.57.
To `CCCCNC1CC(OC2CC(O)(C(=O)CO)Cc3c(O)c4c(c(O)c32)C(=O)c2c(OC)cccc2C4=O)OC(C)C1O` (stereo unspecified) belongs 2.12; to `Brc1cc(Br)c2ccc3cccc4ccc1c2c43`, 6.85; to `CC(=NNC(=O)c1ccc(O)cc1)c1cnccn1`, 1.9.
Regarding `CC(C)NC(=NC#N)NS(=O)(=O)c1cnccc1Nc1cccc(Cl)c1`, the logP worked out at 2.14.
As for `CC(C)CC(N)C(=O)NC(CC(C)C)C(=O)N1CCCC1C(=O)NC(CC(C)C)C(=O)O` (stereo unspecified) (H-LLPL-OH; configuration not given here), the figure is -1; as for `CC(=O)c1cc(F)c(Cl)cc1Cl`, 3.4; as for `COc1ccc(CCNCC(O)COc2ccc(Cc3nc(C(C)=O)c[nH]3)cc2)cc1OC` (stereo unspecified), 2.3.
As for `CCCCCC(O)C=CC1C(O)CC(O)C1CC=CCCCC(=O)OC` (stereo unspecified), the figure is 3.07; as for `O=c1cc(CCl)occ1O`, 0.64.
To `COC1=C(Cl)C(=O)c2ccccc2C1=O` belongs 2.15; to `Clc1ccc(CNc2ncnc3nc[nH]c23)cc1`, 2.9; to `CC(=O)OCOC(=O)N(C)N=Nc1ccc(C#N)cc1`, 2.08.
Turning to `O=C1CCCc2nnc(-c3ccccc3)cc21`, the lipophilicity (logP) amounted to 2.05.
As for `CC(=O)OCC1=C(C(=O)O)N2C(=O)[C@@H](NC(=O)Cc3ccccc3)[C@H]2SC1`, the figure is 0.2; as for `CC(C)(C)n1cc(C(=O)O)c(=O)c2cc(F)c(N3CC4CC3CN4)nc21` (stereo unspecified), -0.41; as for `CC(C)CC(N)C(=O)N1CCCC1C(=O)O` (stereo not drawn) (H-Leu-Pro-OH; configuration not given here), -1.76.
As for `CC(C)CCCNc1[nH]cnc2ncnc1-2`, the figure is 3.06; as for `Cc1oc2ccc3c(C)cc(=O)[nH]c3c2c1C`, 3.18; as for `COCc1ccc(CC#N)cc1`, 1.23.
To `CC(C)CC(NC(=O)C(C)N)C(=O)NC(CC(C)C)C(=O)NCC(=O)NC(Cc1ccccc1)C(=O)O` (stereo unspecified) (H-ALLGF-OH; configuration not given here) belongs -0.63.
On to `Cc1ccc(Br)cc1F`, for which the logP was found to be 3.64.
To `CC(C)COC(=O)n1cc(F)c(=O)[nH]c1=O` belongs 0.87; to `COC(=O)C(C)NP(=O)(OCC1C=CC(n2cc(C)c(=O)[nH]c2=O)O1)Oc1cccc(F)c1` (stereo unspecified), 1.08.
As for `O=[n+]1cnn([O-])c2ccccc21`, the figure is -0.8; as for `CC(C)CC(NC(=O)C(N)Cc1ccc(O)cc1)C(=O)O` (stereo not drawn) (H-Tyr-Leu-OH; configuration not given here), -1.75.
`O=c1ccc(/C=C/c2ccc(-n3ccnc3)cc2)n[nH]1` returned a logP of 1.21.
Turning to `COc1ccc(O)c(C2=NC(C(=O)O)CS2)c1` (stereo unspecified), the lipophilicity (logP) turned out to be 1.6.
`CCC(=O)NCc1c(O)c(=O)cc(C)n1C` displayed a logP of -0.72.
As for `COC(=O)C(C)NP(=O)(OCC1C=CC(n2cc(C)c(=O)[nH]c2=O)O1)Oc1ccc(C(F)(F)F)cc1` (stereo unspecified), the logP was found to be 1.57.
As for `Clc1ccccc1N1CCN(CCCOn2nnc3ccccc32)CC1`, the figure is 4.1.
To `Nc1nnnn1-c1ccc(Cl)c(Cl)c1` belongs 2.06; to `OCCCCCCNc1ncnc2c1ncn2C1OC(CO)C(O)C1O` (stereo unspecified), 0.23.

By logP is commonly meant a log measure of how a compound divides between an organic and an aqueous phase. Read a high logP as higher lipophilicity.
